{"source": "patent US20070072209A1", "about": "“Methods of treatment and diagnosis of Kaposi's sarcoma (KS) and KS related diseases” (priority 2005, published 2007)", "key": {"KSHV": {"test_system": "KSHV", "assay": "Immunofluorescent staining for latent (LANA-1/ORF73) and early lytic (ORF59) viral proteins after PMO-AS", "assay_type": "cell-based", "conditions": "PMO-AS-treated KSHV-infected DMVEC", "from_the_text": "KSHV-infected DMVEC. DMVECs were used as an in vitro model for examining cancerous transformation and viral replication, based, inter alia, on that fact that neoplastic cells in KS tumors are predominantly of vascular origin, whereas KSHV is primarily found in cells of endothelial origin. Specifically, a previously described DMVEC system (Moses et al., J. Virol. 73:6892-6902, 1999) was used for studying infection and transformation by KSHV. Briefly, DMVEC's were immortalized with the E6/E7 genes of human papillomavirus (HPV)-16 prior to infection with KSHV. […] KSHV was obtained from the supernatant of KSHV-infected B-cell lines (e.g., TPA-stimulated BCBL-1 cells). Infection was verified by DNA PCR for amplification of the KS330 BamH1 fragment of the ORF 26 gene, and RT-PCR for the spliced mRNA from the ORF29 gene. The percentage of latently infected cells was determined by immunofluorescent staining for LANA/ORF73. Lytic induction was evaluated with antibodies against an early lytic protein ORF59/PF-8 and a late lytic glycoprotein ORF K8.1A/B. DMVEC were used for experiments when 90% of cells expressed ORF73. In the absence of chemical induction, 2-5% of infected cells expressed ORF59 with approximately 10% of the ORF59-positive cells expressing K8.1A/B. Lytic replication can be induced, however, using phorbol esters such as […] (PMA) providing the ability to look for host genes involved in, or modulated by the lytic cycle as well.\nTo ascertain whether PMO-AS treatment could be indirectly influencing cell phenotype through an effect on KSHV lytic replication, cells treated with PMO-AS against c-Kit, RDC1 and Neuritin were evaluated by immunofluorescent staining for expression of latent (LANA-1/ORF73) and early lytic (ORF59) viral proteins as previously described (Moses, 1999)."}, "KSHV-infected DMVEC [1]": {"test_system": "KSHV-infected DMVEC", "assay": "XTT proliferation assay of PMO-loaded KSHV-infected DMVEC (Example 3)", "assay_type": "cell-based, human", "conditions": "PMO antisense silencing", "procedure": "Proliferation assays, and loading of cells with PMOs. Proliferation of KSHV-infected DMVEC was quantified using an XTT (2,3-bis-(2-methoxy-4-nitro-5-sulfophenyl)-2H-tetrazolium-5-carboxanilide, disodium salt)-based assay. KSHV-infected cells were added to Primaria 96-well trays (Becton Dickinson) at 1×10^4 or 5×10^4 cells/well. XTT (Roche, Molecular Biochemicals, Indianapolis, Ind.) was added 48 hours later according to the manufacturer's instructions. Absorbance was read after 4 to 6 hours on a microplate reader.\nBriefly, cells were plated in 96-well trays at a density approaching confluence (5×10^4 cells per well) in 100 μl of complete medium. PMOs were loaded the following day in a total of 100 μl (0.5 μl PMO, 0.5 μl EPEI, 49 μl H2O and 50 μl serum free medium) with reagent mixing as described by the manufacturer (GeneTools). Controls included a FITC PMO control oligonucleotide, EPEI only or H2O only. Each variable was performed in quadruplicate. Fresh complete medium was replaced 4 hours after loading. Cells were cultured for 4 days to allow for multi-layered cell growth post-confluence in the absence of any growth inhibition. XTT was added on day 4 of culture and the absorbance read 4 hrs later on a microplate reader. Cell proliferation (growth) values are given as percentage inhibition values, relative to cells without PMO, which are adjusted to 100%."}, "KSHV-infected DMVEC [2]": {"test_system": "KSHV-infected DMVEC", "assay": "Morpholino treatment and focus inhibition assay (Example 5)", "assay_type": "cell-based, human", "conditions": "for Foci/spindle morpholigical inhibition: PMO-treated KSHV-infected DMVEC vs control PMO, repeated three times; for effect on phenotype (foci, spindle shape) in focus-inhibition assay (in words): PMO-AS, KSHV-infected DMVEC, 5-10 days", "procedure": "Morpholino Treatment and Focus Inhibition Assay. Phosphorodiamidate morpholino antisense oligonucleotides (PMO-AS) were designed and synthesized by Gene Tools LLC (Philomath, Oreg.) as a Special Delivery formulation, which pairs the morpholino with a partially complementary DNA oligo. A weakly basic delivery agent, Ethoxylated Polyethlyenimine (EPEI) is then used to deliver the anionic morpholino/DNA duplex into the cytosol. PMO-AS were received as sterile, lyophilized solids ([…]) that were solubilized in sterile water to obtain 0.5 mM stock solutions. To load a 35 mm dish of DMVEC at 90% confluence, 5 microl of stock solution was mixed with 5 microl of EPEI delivery solution in 590 μl H20 for 20 minutes at room temperature, and then mixed with 1.5 ml of serum-free RPMI medium. Endothelial growth media was removed from DMVEC, and replaced with the PMO-AS:EPEI:RPMI delivery solution for 3 hours in a 37° C. incubator. After incubation, cells were rinsed, complete endothelial growth medium was added and cells were cultured for up to 10 days without sub-culture, with media replacement every 48-72 hours. This protocol allows for the characteristic post-confluent growth and development of multi-layered spindle-cell aggregates (foci) in KSHV-infected cultures. Cells were monitored daily under the phase microscope to evaluate PMO-AS-inhibition of the development of these foci. At the conclusion of an assay, cells were fixed in 2% paraformaldehyde and stained with a MAB against CD31 (Dako; 1:100) followed by a goat-anti-mouse FITC second conjugate. Junctional staining of cells with CD31 accentuated the disorganized multi-layered nature of the spindle cell aggregates as composed to the flat, organized profile of contact-inhibited cells.\nFor these assays, KSHV-infected DMVEC monolayers were cultured to 90% confluence and then loaded with each PMO-AS, or maintained as unloaded controls. Cultures were observed daily until control cultures had developed prominent multi-layered aggregates of spindle cells. Typically this took 5-10 days with some variation between replicate experiments. Each experiment was performed at least three times and was performed with mock-infected as well as KSHV-infected DMVEC. As expected, mock-infected DMVEC maintained a quiescent monolayer at confluence, and PMO-AS treatment of uninfected cells occurred without any adverse effect. This observation allowed verification that none of the gene knockdown treatments induced non-specific toxicity in DMVEC. The majority of tested PMO-AS had no effect on the ability of KSHV-infected DMVEC to grow post-confluence and form disorganized, multi-layered foci (TABLE 2)."}}}
{"substance": "KIT: FITC-labeled PMO targeting the start codon of c-Kit, CGCCTCTCATCGCGGTAGCTGCG (SEQ ID NO:21) (all phosphorodiamidate morpholino (PMO); FITC label attached, position not given here)", "values": [{"measurement": "expression of ORF73 (latent viral protein)", "setting": "KSHV", "value": "maintained expression of ORF73"}, {"measurement": "inhibition of KSHV-induced cellular proliferation (in words)", "setting": "KSHV-infected DMVEC [1]", "value": "substantial inhibition"}, {"measurement": "Foci/spindle morpholigical inhibition", "setting": "KSHV-infected DMVEC [2]", "value": "Full"}]}
{"substance": "Neuritin: PMO antisense to Neuritin, TTAACTCCCATCCTACGTTTAGTCA (SEQ ID NO:19) (all phosphorodiamidate morpholino (PMO); delivered paired with partially complementary DNA oligo (Special Delivery))", "values": [{"measurement": "expression of ORF73 (latent viral protein)", "setting": "KSHV", "value": "maintained expression of ORF73"}, {"measurement": "inhibition of KSHV-induced cellular proliferation (in words)", "setting": "KSHV-infected DMVEC [1]", "value": "substantial inhibition"}, {"measurement": "effect on phenotype (foci, spindle shape) in focus-inhibition assay (in words)", "setting": "KSHV-infected DMVEC [2]", "value": "dramatic effect on phenotype"}, {"measurement": "Foci/spindle morpholigical inhibition", "setting": "KSHV-infected DMVEC [2]", "value": "Full"}]}
{"substance": "RDC-1: PMO antisense to RDC-1, GAAGAGATGCAGATCCATCGTTCTG (SEQ ID NO:15) (all phosphorodiamidate morpholino (PMO); delivered paired with partially complementary DNA oligo (Special Delivery))", "values": [{"measurement": "expression of ORF73 (latent viral protein)", "setting": "KSHV", "value": "maintained expression of ORF73"}, {"measurement": "inhibition of KSHV-induced cellular proliferation (in words)", "setting": "KSHV-infected DMVEC [1]", "value": "substantial inhibition"}, {"measurement": "effect on phenotype (foci, spindle shape) in focus-inhibition assay (in words)", "setting": "KSHV-infected DMVEC [2]", "value": "dramatic effect on phenotype"}, {"measurement": "Foci/spindle morpholigical inhibition", "setting": "KSHV-infected DMVEC [2]", "value": "Full"}]}
